Assays:
[1] = Inhibition of Vibrio cholerae beta carbonic anhydrase preincubated for 15 mins by stopped flow CO2 hydration assay
[2] = Inhibition of Vibrio cholerae alpha carbonic anhydrase preincubated for 15 mins by stopped flow CO2 hydration assay

Row | SMILES | Ki [1] | Ki [2]
1 | COc1cc(NC(=O)c2ccc3c(c2)C(=O)N(c2ccc(S(N)(=O)=O)cc2)C3=O)c(C(=O)O)cc1OC | 7.97 µM | 2.84 µM
2 | Cc1ccc(NC(=O)c2ccc3c(c2)C(=O)N(c2ccc(S(N)(=O)=O)cc2)C3=O)c(C(=O)O)c1 | 5.42 µM | 1.68 µM
3 | COc1cc(NC(=O)c2ccc3c(c2)C(=O)N(CCc2ccc(S(N)(=O)=O)cc2)C3=O)c(C(=O)O)cc1OC | 8.58 µM | 3.19 µM
4 | Cc1ccc(NC(=O)c2ccc3c(c2)C(=O)N(CCc2ccc(S(N)(=O)=O)cc2)C3=O)c(C(=O)O)c1 | 9.26 µM | 1.96 µM
5 | Cc1ccc(NC(=O)c2ccc3c(c2)C(=O)N(Cc2ccc(S(N)(=O)=O)cc2)C3=O)c(C(=O)O)c1 | 8.2 µM | 2.59 µM
6 | COc1cc(NC(=O)c2ccc3c(c2)C(=O)N(Cc2ccc(S(N)(=O)=O)cc2)C3=O)c(C(=O)O)cc1OC | 9.26 µM | 2.93 µM
7 | NS(=O)(=O)c1ccc(N2C(=O)c3ccc(C(=O)Nc4ccc(I)cc4C(=O)O)cc3C2=O)cc1 | 5.4 µM | 0.281 µM
8 | NS(=O)(=O)c1ccc(CCN2C(=O)c3ccc(C(=O)Nc4ccc(I)cc4C(=O)O)cc3C2=O)cc1 | 6.75 µM | 2.58 µM
9 | NS(=O)(=O)c1ccc(CN2C(=O)c3ccc(C(=O)Nc4ccc(I)cc4C(=O)O)cc3C2=O)cc1 | 6.78 µM | 1.33 µM
